Measurements reported in ChEMBL document CHEMBL1201862, “PubChem BioAssay data set” (2004).
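The compound was tested at five concentrations on cells cultured in 96-well plates, with a 48-hour exposure period. The concentration for 50% growth inhibition is given as GI50.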 Calls of active or inactive are those of the source. Cut-off read from the data, not from the text of the source: active = GI50 up to about 1.1 µM and inactive = higher.

Legend:
Experiment in all cases: NCI-60 cell line screen, 48 h
DMS-114 = system: DMS-114
XF498 = system: XF498
SNB-78 = system: SNB-78
LXFL 529 = system: LXFL 529
M19-MEL = system: M19-MEL
KM-20L2 = system: KM-20L2
DMS-273 = system: DMS-273
HOP-18 = system: HOP-18
RXF 631 = system: RXF 631

Measured: GI50

CCOC(=O)CC(=O)ON(C)C(C)=O
inactive: DMS-114 > 100 µM | XF498 > 100 µM | SNB-78 > 100 µM | LXFL 529 > 100 µM | M19-MEL > 100 µM | KM-20L2 > 100 µM

COc1ccc(C2Oc3cc(OC)c(OC)cc3C2CCl)cc1OC (stereo not drawn)
inactive: DMS-114 > 100 µM | XF498 > 100 µM | DMS-273 > 100 µM | LXFL 529 > 100 µM | M19-MEL > 100 µM | KM-20L2 > 100 µM

CCN(CC)CCN(C)CC(C)(C)C(=O)/C=C/c1ccccc1
inactive: DMS-114 6.58 µM | XF498 12.4 µM | DMS-273 13 µM | LXFL 529 12.3 µM | M19-MEL 11.6 µM | HOP-18 15.9 µM | KM-20L2 11.1 µM

Cc1cccc(NC(=O)c2c(N)[n+]([O-])c3ccccc3[n+]2[O-])c1
inactive: RXF 631 1.77 µM | XF498 11.4 µM | DMS-273 9.51 µM | SNB-78 11.9 µM | LXFL 529 11 µM | M19-MEL 8.97 µM | HOP-18 18.2 µM | KM-20L2 16.6 µM

COC(=O)C1=C(C(=O)OC)C2(OC(C)=O)c3ccccc3-c3ccccc3C12 (stereo not drawn)
inactive: DMS-114 5.37 µM | XF498 12.4 µM | DMS-273 4.98 µM | SNB-78 4.95 µM | LXFL 529 1.7 µM | M19-MEL 4.56 µM | HOP-18 5.2 µM | KM-20L2 6.15 µM

N=C(N)NS(=O)(=O)c1ccc(NCCc2c3ccccc3nc3ccccc23)cc1
inactive: RXF 631 35.5 µM | DMS-114 28.3 µM | DMS-273 72.4 µM | LXFL 529 > 100 µM | M19-MEL > 100 µM | KM-20L2 > 100 µM

CCC12CCCN(Cc3ccccc3)C1c1c(n(C)c3ccccc13)C(CO)C2 (stereo not drawn)
inactive: RXF 631 56 µM | DMS-114 37.8 µM | XF498 43.3 µM | DMS-273 46.5 µM | LXFL 529 41 µM | M19-MEL 59 µM | KM-20L2 29.3 µM

CN(CC#N)C1CCCC[C@H]1O (stereo partly drawn)
inactive: DMS-114 > 100 µM | XF498 > 100 µM | DMS-273 > 100 µM | SNB-78 > 100 µM | LXFL 529 > 100 µM | HOP-18 > 100 µM | KM-20L2 > 100 µM

CCOC(=O)C1(C)CCC(C(C(=O)O)C(=O)O)CC1=O (stereo not drawn)
inactive: RXF 631 > 100 µM | DMS-114 > 100 µM | DMS-273 > 100 µM | SNB-78 > 100 µM | LXFL 529 > 100 µM | M19-MEL > 100 µM | HOP-18 > 100 µM | KM-20L2 > 100 µM

COc1cc2ccc(CC#N)cc2cc1OC
inactive: RXF 631 > 100 µM | DMS-114 > 100 µM | XF498 > 100 µM | DMS-273 > 100 µM | SNB-78 > 100 µM | LXFL 529 > 100 µM | M19-MEL > 100 µM | KM-20L2 > 100 µM

CCCCN(CCCC)c1c([N+](=O)[O-])c(=O)nc2ccccn12
inactive: RXF 631 23.4 µM | DMS-114 21.7 µM | XF498 32.2 µM | SNB-78 48.2 µM | LXFL 529 33 µM | M19-MEL 8.67 µM | KM-20L2 27.4 µM

C[Si](C)(C)C(Sc1ccccc1)(Sc1ccccc1)Sc1ccccc1
inactive: DMS-114 54.8 µM | XF498 30.8 µM | DMS-273 > 100 µM | SNB-78 > 100 µM | LXFL 529 81.5 µM | M19-MEL 34.7 µM | KM-20L2 67.1 µM

CC(=O)NC1=C(NCc2ccc(Cl)cc2)C(=O)c2ccccc2C1=O
inactive: XF498 1.44 µM | DMS-273 7.67 µM | SNB-78 11 µM | LXFL 529 6.55 µM | M19-MEL 5.27 µM | KM-20L2 24.3 µM

Cc1cc(C)nc(NS(=O)(=O)c2ccc(NC(=O)c3ccc(Cl)c4c(Nc5ccc(S(=O)(=O)N=C(N)N)cc5)c5ccccc5nc34)cc2)n1
inactive: DMS-114 29.9 µM | XF498 > 100 µM | DMS-273 33.5 µM | SNB-78 > 100 µM | LXFL 529 44.3 µM | HOP-18 > 100 µM | KM-20L2 50.2 µM

CN(C)c1ccc(/C=c2\sc3nnc(Cc4ccccc4)n3c2=O)cc1
inactive: DMS-114 17 µM | XF498 > 10 µM | DMS-273 33.7 µM | SNB-78 > 10 µM | LXFL 529 > 10 µM | M19-MEL > 100 µM | HOP-18 > 10 µM | KM-20L2 > 10 µM

CC(=O)N/C(=C\c1cccc([N+](=O)[O-])c1)c1nc2ccc3c(c2[nH]1)C(=O)c1ccccc1C3=O
inactive: RXF 631 32.6 µM | DMS-114 > 37.5 µM | XF498 52.5 µM | SNB-78 > 57.9 µM | LXFL 529 29.3 µM | M19-MEL > 100 µM | KM-20L2 > 100 µM

CC1(c2cccc3c2C2(O)C=CC4(CCC32)OCCO4)OCCO1 (stereo not drawn)
inactive: DMS-114 > 100 µM | DMS-273 > 100 µM | SNB-78 > 100 µM | LXFL 529 > 100 µM | M19-MEL > 100 µM | HOP-18 > 100 µM | KM-20L2 > 100 µM

CC1=C(CO)C(=O)OC(C(C)C2CCC3C4CC5OC56C(O)C(N5CC5)=CC(=O)C6(C)C4CCC23C)C1 (stereo not drawn)
inactive: RXF 631 11.5 µM | DMS-114 2.13 µM | XF498 5.3 µM | DMS-273 5.65 µM | SNB-78 5.61 µM | LXFL 529 4.32 µM | M19-MEL 11.4 µM | KM-20L2 3.05 µM
